Earlier results on one compound are cited in US12351592B2 (UNIVERSIDAD SANTIAGO DE CALI, priority 2019, dated 2025).

Regarding `CN(C)C(=N)N=C(N)N` [Metformin], the “distribution volume (Vd)” value (in vivo) is reported as 654±358 I. In addition, for the setting “slow access”, the access to erythrocytes is reported as 5 % of the blood dose.
